Data: patent US10179355B2, “Bioremediation enhancing agents and methods of use” (JRW BIOREMEDIATION, LLC, priority 2007, dated 2019)

How the values were obtained:
[1] = test system: dechlorinating bacteria known to convert PCE to ethene; assay: Set C: Efficiency by Volatile Fatty Acid Analysis; assay type: cell-based, Dehalococcoides and Dehalobacter spp.
Text: (§1) Sets B, C, D, E, and G further contain figures and tables showing results of the characterization of the Efficiency and the Relative Efficiency of electron donor usage. Efficiency may be defined as the percent of electron donor utilized for dechlorination, and may be calculated by dividing the pmoles of Chloride ion generated by the pmoles of electron donor consumed as measured by either Volatile Fatty Acid (VFA) analysis (Sets B, C, and G) or Chemical Oxygen Demand (COD) analysis (Set D and E). The Relative Efficiency of the electron donor utilization may be defined as the Efficiency of the Electron Donor divided by the Efficiency of the Lactate Control.
The method used to calculate the consumption of the electron donor measured the propionate, acetate and formate levels to calculate the consumption of electron donor over time. The lactate and propionate fermented very rapidly resulting in acetate and formate as the only measurable VFAs.

[2] = test system: dechlorinating bacteria known to convert PCE to ethene; assay: Set B: Efficiency of electron donor utilization by COD analysis; assay type: cell-based, Dehalococcoides and Dehalobacter spp.
Text: as §1
Table 10 and FIG. 9 show the efficiency of electron donor (e^−) utilization as measured by COD analysis. The COD analysis calculates the utilization of electron donor by measuring the starting COD and the final COD taking the difference and converting mg/L to pmoles of electrons. The pmoles of electrons used for dechlorination was determined from the calculated Chloride produced leading to an Efficiency and Relative Efficiency of electron donor utilization as compared to lactate.

CC(O)C(=O)[O-].[Na+] (centres unmarked) [Lactate Control, sodium lactate]
Estimated % Efficiency [1]: 2.55%
Relative Efficiency ([1]; relative to Lactate Control): 1.00
% of e^− used for dechlor. [2]: 13.1%
Chloride ([2]; Efficiency by COD analysis): 77.16 pmol
Relative Efficiency ([2]; relative to Lactate Control): 100%
